From paper PMC9452538, “The antimicrobial peptide LI14 combats multidrug-resistant bacterial infections” (Communications Biology, 2022)
In brackets after ≈: the same amount, converted by molar mass. Peptide text beside a SMILES is read from it.

What was measured:
[1] = tested on: MRSA 1518; experiment: microbe, parasite or virus in culture; assay type: cell-based, Staphylococcus aureus; conditions: 1518
Description: (§1) An antimicrobial activity study was conducted on all peptides against a panel of laboratory bacteria, including ATCC source and clinical isolates with resistance determinants. According to CLSI2021 guidelines, we tested the minimum inhibitory concentrations (MICs) of peptides using standard broth micro-dilutions. Briefly, bacteria grown to exponential phase were diluted in 1:1000 to MHB, subsequently, equivalent amounts of bacterial suspension (1.5 × 10^6 CFUs/mL) were mixed with different concentrations of peptides in a sterilized 96-well microtiter plate (Corning).

[2] = tested on: MRSA 1530; experiment: microbe, parasite or virus in culture; assay type: cell-based, Staphylococcus aureus; conditions: 1530
Description: as §1

[3] = tested on: E. coli ATCC 25922; experiment: microbe, parasite or virus in culture; assay type: cell-based, Escherichia coli; conditions: ATCC 25922
Outline: (§2)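 Standard CLSI broth microdilution (2021 guidelines) in MHB with exponential-phase inoculum.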

[4] = tested on: E. coli B2 (blaNDM-5 + mcr-1); experiment: microbe, parasite or virus in culture; assay type: cell-based, Escherichia coli; conditions: B2 (blaNDM-5 + mcr-1)
Outline: as §2

[5] = tested on: A. baumannii ATCC 19609; experiment: microbe, parasite or virus in culture; assay type: cell-based, Acinetobacter baumannii; conditions: ATCC 19609
Description: as §1

[6] = tested on: A. baumannii C222 (tet(X6)); experiment: microbe, parasite or virus in culture; assay type: cell-based, Acinetobacter baumannii; conditions: C222 (tet(X6))
Description: as §1

[7] = tested on: P. cibarius HNCF44W (blaNDM-1 + tet(X6)); experiment: organism not typed; assay type: cell-based
Description: as §1

[8] = tested on: S. aureus ATCC 29213; experiment: Resistance development study, serial passages; assay type: cell-based, Staphylococcus aureus; conditions: 80 serial passages at sub-inhibitory concentration (0.5-fold MIC)
Description: The ability of LI14 peptide to induce resistance was studied as previously described. Resistance to the therapeutically important drugs rifampicin and ciprofloxacin was measured using S. aureus ATCC 29213 and E. coli ATCC 25922 as test strains. The middle and final MICs were monitored after eighty such serial passages exposed to the tested medicines (0.5-fold MIC), and the fold change in MIC increase was recorded.

[9] = tested on: E. coli B2 persisters; experiment: Bactericidal activity against persisters; assay type: cell-based, Escherichia coli
Description: (§3) Briefly, the bacteria suspensions after washing were exposed to 50-fold MIC concentrations of vancomycin and tigecycline, respectively, and co-incubation for 4 h to obtain persister cells. […] Subsequently, the primary CFUs/mL were calculated.

[10] = tested on: MRSA T144 persisters; experiment: Bactericidal activity against persisters; assay type: cell-based, Staphylococcus aureus; conditions: within 2 h
Description: as §3

[11] = tested on: CD-1 mice; assay type: in vivo; conditions: 10 mg/kg i.p. daily for 6 days, n = 4
Description: LI14 (10 mg/kg, body weight) was intra-peritoneally injected into CD-1 mice (n = 4 biologically independent animals per group) every day for 6 days[64]. Mice were weighed daily and the behaviors of the mice were inspected for one week. Blood from mice was collected on the seventh day for whole-blood cell analysis and kidney chemistry profile. At the same time, the heart, liver, spleen, lung, and kidney of mice were collected for H.E. staining.
Supplementary Fig. 5 In vivo toxicity assessment of LI14 peptide.
(a) Scheme of the LI14 peptide toxicity study in mice. CD-1 female mice (n = 4 biologically independent animals per group) were intraperitoneally administered with LI14 (10 mg/kg) daily […]. (b-e) Body weight (b), whole-blood cell profiles (c), serum biochemical […]
(1 picture or pasted object on this page, not shown here)

[12] = tested on: MRSA T144; experiment: Galleria mellonella infection model; assay type: in vivo; conditions: MRSA T144 infected G. mellonella; 50 mg/kg of LI14 at 1 h after infection; 7 days; n = 8
Description: Galleria mellonella larvae (supplied by Huiyude Biotech Company, Tianjin, China) were separated into six groups (n = 8 biologically independent animals per group) and infection models by injecting MRSA T144 and E. coli B2 cultures, respectively (10 µL, 1.0 × 10^5 CFUs per larvae) into the right posterior gastropoda[42],[48]. The infected larvae were treated by giving LI14 peptide (10, 20, 50 mg/kg), ampicillin/rifampicin (10 mg/kg) or a mixture of LI14 with ampicillin/rifampicin (10 + 10 mg/kg) in the left posterior gastropoda after 1 h infection, with the PBS injection group serving as a control treatment. Within 7 days, survival rates of Galleria mellonella larvae were inspected and recorded.

[13] = tested on: E. coli B2; experiment: Neutropenic mouse thigh infection model; assay type: in vivo, CD-1 mice; conditions: 48 h; for Reduction in CFUs in thigh compared with vehicles: n = 6
Description: (§4) Female CD-1 mice (n = 6 biologically independent animals per group) were first given cyclophosphamide (two consecutive injections of 150 and 100 mg kg^−1 at 4 and 1 day before infection) to construct neutropenia models. The mice’s right thighs were then injected with 100 μL MRSA T144 or E. coli B2 suspensions (10^5 CFUs per mouse). Post-infection of 1 h, 100 μL LI14 peptide (10 or 20 mg/kg), ampicillin/rifampicin (20 mg/kg) or a combination of LI14 with ampicillin/ rifampicin (10 + 20 mg/kg) were given by intraperitoneal injection. All mice were euthanized 48 h after drug administration, and right thigh muscle tissue was removed aseptically, homogenized, serially diluted, and plated on MHA to qualify bacterial loads after overnight incubation at 37 °C.

[14] = tested on: MRSA T144; experiment: Neutropenic mouse thigh infection model; assay type: in vivo, CD-1 mice; conditions: 48 h; for Reduction in CFUs in thigh compared with vehicles: n = 6
Description: as §4

CC[C@H](C)[C@H](NC(=O)[C@H](CCCNC(=N)N)NC(=O)[C@H](CS)NC(=O)[C@H](CC(C)C)NC(=O)[C@H](CCCCN)NC(=O)[C@H](CCCCN)NC(=O)[C@H](CC(C)C)NC(=O)[C@@H](NC(=O)[C@H](CCCNC(=N)N)NC(=O)[C@H](CS)NC(=O)[C@H](CC(C)C)NC(=O)[C@H](CCCCN)NC(=O)[C@H](CCCCN)NC(=O)[C@@H](N)CC(C)C)[C@@H](C)CC)C(N)=O [LI14] (H-LKKLCRILKKLCRI-NH2)
MIC [1]: 64 µg/mL (≈ 37.1 µM) | MIC [2]: 64 µg/mL (≈ 37.1 µM) | MIC [3]: 8 µg/mL (≈ 4.63 µM) | MIC [4]: 4 µg/mL | MIC [5]: 8 µg/mL (≈ 4.63 µM) | MIC [6]: 16 µg/mL (≈ 9.26 µM) | MIC [7]: 8 µg/mL (≈ 4.63 µM) | Increase in MIC after serial passages [8]: 8 fold | Removal rate of persisters ([9]; 128 μg/mL of LI14): more than 99% | Clearance rate against persisters ([9]; within 2 h): above 99% | Clearance rate against persisters [10]: above 99% | Behavior and body weight [11]: did not observe murine behavior changes or body weight loss | H.E. staining of heart, liver, spleen, lung, kidney [11]: no significant difference in histological morphology | Whole-blood cell profiles and serum biochemical index [11]: no significant difference compared with the control group | Survival rate of larvae [12]: 100% | Bacterial load in thigh ([13]; LI14 10 mg/kg i.p., animal 1): 5.99 Log10CFUs/thigh | Bacterial load in thigh ([13]; LI14 10 mg/kg i.p., animal 2): 5.91 Log10CFUs/thigh | Bacterial load in thigh ([13]; LI14 10 mg/kg i.p., animal 3): 6.58 Log10CFUs/thigh | Bacterial load in thigh ([13]; LI14 10 mg/kg i.p., animal 4): 6.66 Log10CFUs/thigh | Bacterial load in thigh ([13]; LI14 10 mg/kg i.p., animal 5): 7.36 Log10CFUs/thigh | Bacterial load in thigh ([13]; LI14 10 mg/kg i.p., animal 6): 7.31 Log10CFUs/thigh | Reduction in CFUs in thigh compared with vehicles ([13]; LI14 10 mg/kg i.p.): ~ 2 log10 | Bacterial load in thigh ([13]; LI14 20 mg/kg i.p., animal 1): 4.93 Log10CFUs/thigh | Bacterial load in thigh ([13]; LI14 20 mg/kg i.p., animal 2): 4.99 Log10CFUs/thigh | Bacterial load in thigh ([13]; LI14 20 mg/kg i.p., animal 3): 4.71 Log10CFUs/thigh | Bacterial load in thigh ([13]; LI14 20 mg/kg i.p., animal 4): 4.79 Log10CFUs/thigh | Bacterial load in thigh ([13]; LI14 20 mg/kg i.p., animal 5): 5.69 Log10CFUs/thigh | Bacterial load in thigh ([13]; LI14 20 mg/kg i.p., animal 6): 5.66 Log10CFUs/thigh | Reduction in CFUs in thigh compared with vehicles ([13]; LI14 20 mg/kg i.p.): 4 log10 | Bacterial load in thigh ([14]; LI14 10 mg/kg i.p., animal 1): 6.18 Log10CFUs/thigh | Bacterial load in thigh ([14]; LI14 10 mg/kg i.p., animal 2): 6.30 Log10CFUs/thigh | Bacterial load in thigh ([14]; LI14 10 mg/kg i.p., animal 3): 5.92 Log10CFUs/thigh | Bacterial load in thigh ([14]; LI14 10 mg/kg i.p., animal 4): 5.83 Log10CFUs/thigh | Bacterial load in thigh ([14]; LI14 10 mg/kg i.p., animal 5): 7.15 Log10CFUs/thigh | Bacterial load in thigh ([14]; LI14 10 mg/kg i.p., animal 6): 7.28 Log10CFUs/thigh | Reduction in CFUs in thigh compared with vehicles ([14]; LI14 10 mg/kg i.p.): ~ 2 log10 | Bacterial load in thigh ([14]; LI14 20 mg/kg i.p., animal 1): 4.32 Log10CFUs/thigh | Bacterial load in thigh ([14]; LI14 20 mg/kg i.p., animal 2): 4.36 Log10CFUs/thigh | Bacterial load in thigh ([14]; LI14 20 mg/kg i.p., animal 3): 4.77 Log10CFUs/thigh | Bacterial load in thigh ([14]; LI14 20 mg/kg i.p., animal 4): 4.61 Log10CFUs/thigh | Bacterial load in thigh ([14]; LI14 20 mg/kg i.p., animal 5): 5.45 Log10CFUs/thigh | Bacterial load in thigh ([14]; LI14 20 mg/kg i.p., animal 6): 5.51 Log10CFUs/thigh | Reduction in CFUs in thigh compared with vehicles ([14]; LI14 20 mg/kg i.p.): 4 log10
